Results: patent publication US20170333112A1, “Optimizing Total Energy Delivered in Nanosecond Pulses for Triggering Apoptosis in Cultured Cells” (Pulse Biosciences, Inc., priority 2016, published 2017)

What was measured:
MCA205 cells = assay: ATP released from cells after treatment (FIG. 10); type: cell-based, murine
Text: (§1) FIG. 10 includes charts showing ATP released from MCA205, McA-RH7777, and Jurkat E6-1 cells at different numbers of pulses.

McA-RH7777 cells = assay: ATP released from cells after treatment (FIG. 10); type: cell-based, rat
Text: as §1

[1] = higher concentration (100 μM), rank among treatment groups (NPS 15 J/mL highest)
[2] = both high and low concentrations (4 and 10 μM)

| SMILES | ATP levels compared with untreated cells (MCA205 cells; 100 μM) | ATP released (MCA205 cells; [1]) | ATP released (McA-RH7777 cells; [1]) | ATP released (MCA205 cells; [2]) | ATP released (McA-RH7777 cells; [2]) |
| --- | --- | --- | --- | --- | --- |
| COc1cccc2c1C(=O)c1c(O)c3c(c(O)c1C2=O)C[C@@](O)(C(=O)CO)C[C@@H]3O[C@H]1C[C@H](N)[C@H](O)[C@H](C)O1 [doxorubicin] | significantly higher | second highest amount of ATP | second highest amount of ATP | – | – |
| O=C1c2c(O)ccc(O)c2C(=O)c2c(NCCNCCO)ccc(NCCNCCO)c21 [mitoxantrone] | – | – | – | comparatively small amount ATP | comparatively small amount ATP |
